Series [1] deals with Staphylococcus aureus (ATCC 43300) (MRSA). The series can be described thus: Antibacterial whole-cell growth inhibition (MIC, CO-ADD). It counts as cell-based. Conditions: for MIC: S. aureus (MRSA) ATCC 43300, inhibition ≥80%, two replicates (n = 2). On the procedure:
Antibacterial screening was carried out by the serial dilution method. All bacteria were cultured in the cation-adjusted Mueller Hinton broth (CAMHB) at 37 °C overnight. A sample of each culture was then diluted 40-fold in fresh broth and incubated at 37 °C for 1.5–3 h. The resultant mid-log phase cultures were diluted (CFU/mL measured by OD600) and then added into each well containing a test compound, giving a cell density of 5 × 10^5 CFU/mL and a total volume of 50 µL. All the plates were covered and incubated at 37 °C for 18 h without shaking.
Inhibition of bacterial growth was determined by measuring the absorbance at 600 nm (OD600) with a Tecan M1000 Pro monochromator plate reader. […]

Another series can be described thus: in vitro. It counts as cell-based, human. Conditions: human, CC50. How it is done: (§1) HEK293 cells were counted manually in a Neubauer hemocytometer and then plated in 384-well plates containing the test compounds to give a density of 5000 cells per well in a final volume of 50 µL. DMEM supplemented with 10% FBS was used as the growth medium, and the cells were incubated together with the compounds for 20 h at 37 °C in 5% CO2.
(§2) The cytotoxicity (or cell viability) was measured by fluorescence, ex: 560/10 nm, em: 590/10 nm (F560/590), after addition of 5 µL of 25 µg/mL resazurin (2.3 µg/mL final concentration) and after incubation for further 3 h at 37 °C in 5% CO2. The fluorescence intensity was measured using a Tecan M1000 Pro monochromator plate reader with automatic gain control. The CC50 (50% cytotoxicity concentration) values were calculated by curve fitting of inhibition vs. log(concentration) using a sigmoidal dose–response function, with variable fitting values for bottom, top, and slope. In addition, the maximal percentage of cytotoxicity is reported as DMax, indicating any compounds with partial cytotoxicity. The curve fitting was implemented using Pipeline Pilot’s dose–response component. The results were similar to those obtained by other curve-fitting tools, such as GraphPad’s Prism and IDBS’s XlFit. Any value with > indicated samples with no activity (low DMax value) or samples with CC50 values above the maximum tested concentration (higher DMax value).
(§3) In addition, samples were flagged as partially cytotoxic if DMax ≥ 50%, even for CC50 > the maximum tested concentration.
(§4) Tamoxifen served as a positive cytotoxicity standard. Melittin was used as a positive hemolytic standard.

Series [2] concerns human embryonic kidney cell line HEK293 (ATCC CRL-1573). As to the kind of experiment: in vitro. The format is cell-based. The note with it: human, 20 h. On the procedure:
as §1, §2, §3, §4

A short description of the next series: Hemolysis assay. It counts as cell-based, human. The note with it: human, Dmax (maximal percentage of hemolysis). On the procedure:
(§5) Human whole blood was washed three times with 3 volumes of 0.9% NaCl and then resuspended in the same medium to a concentration of 0.5 × 10^8 cells/mL, as determined by manual cell count in a Neubauer hemocytometer. The washed cells were then added to 384-well plates containing the test compounds to a final volume of 50 µL. After shaking on a plate shaker for 10 min, the plates were incubated for 1 h at 37 °C. After incubation, the plates were centrifuged at 1000× g for 10 min to pellet the cells and debris; 25 µL of the supernatant was then transferred to a polystyrene 384-well assay plate.
(§6) Hemolysis was monitored by measuring the supernatant absorbance at […] (OD405). The absorbance was measured using a Tecan M1000 Pro monochromator plate reader. HC10 and HC50 (10% and 50% hemolysis concentrations, respectively) were calculated by curve fitting of inhibition vs. log(concentration) using a sigmoidal dose–response function with variable fitting values for top, bottom, and slope. In addition, the maximal percentage of hemolysis is reported as DMax, indicating any compounds with partial hemolysis. The curve fitting was implemented using Pipeline Pilot’s dose–response component. […] Any value with > indicated sample with no activity (low DMax value) or samples with HC10 values above the maximum tested concentration (higher DMax value).
(§7) In addition, samples were flagged as partially hemolytic if DMax ≥ 50%, even for HC10 > the maximum tested concentration. […]

The subject of the next series is human red blood cells. As to the kind of experiment: Hemolysis assay. The format is cell-based. Conditions: human, 1 h. On the procedure: as §5, §6, §7
A short description of series [3]: Ion permeability and rupture of planar lipid bilayers. On the procedure: (§8) Synthetic 1,2-diphytanoyl-sn-glycero-3-phosphocholine (DPhPC) and 1,2-diphytanoyl-sn-glycero-3-phospho-(1′-rac-glycerol) (DPhPG) were purchased from Avanti® Polar Lipids (Avanti Polar Lipids, Inc., Alabaster, AL, USA). A KCl solution (0.1 M) was buffered with 5 mM HEPES, pH 7.4. Bilayer lipid membranes were prepared from DPhPC or DPhPG using a monolayer-opposition technique on a 50 µm-diameter aperture in a 10 µm-thick Teflon film separating the cis- and trans-compartments of the Teflon chamber. Experiments were performed in chambers containing 0.1 M KCl, 5 mM Hepes-KOH, pH 7.4.
(§9) The test compounds (4, 20, 22) were added to the cis-chamber as 10 mg/mL solutions in ethanol (to mimic the physiologically relevant conditions) up to the final concentrations and the effects of the compounds on the ion permeability of the model lipid membranes were studied. Ag/AgCl electrodes with 1.5% agarose/2 M KCl bridges were used to apply the transmembrane voltage (V) and measure the transmembrane current (I). ‘Positive voltage’ refers to the case in which the cis-side compartment is positive with respect to the trans-side. All experiments were performed at room temperature.
(§10) The current was measured using an Axopatch 200B amplifier (Molecular Devices, LLC, Orlean, CA, USA) in voltage clamp mode. Data were digitized using a Digidata 1440A and analyzed using pClamp 10.0 (Molecular Devices, LLC, Orlean, CA, USA) and Origin 8.0 (OriginLab Corporation, Northampton, MA, USA). The data were acquired at a sampling frequency of 5 kHz using low-pass filtering at 200 Hz.
(§11) The threshold concentrations (Cbr) of the derivatives required to rupture the bilayers composed of DPhPC or DPhPG at a transmembrane voltage of 100 mV were determined. Cbr-values were averaged from 3 to 4 bilayers and presented as mean ± standard error (p ≤ 0.05).

A short description of series [4]: Ion permeability, pore formation and rupture of planar lipid bilayers. How it is done: as §8, §9, §10, §11
Pore-forming ability of compound 22 was studied by applying transmembrane voltages in a range of 50–200 mV with 50 mV step and by increasing the derivative concentration in the bilayer bathing solution from 10 to 150 µg/mL.

A short description of series [5]: Measurement of the membrane boundary potential (K+-nonactin conductance). The note with it: DPhPG, 0.1 M KCl, pH 7.4, 50 mV. How it is done: Measurement of the membrane boundary potential. Virtually solvent-free planar lipid bilayers were made of DPhPC or DPhPG as described above. After the membrane was completely formed and stabilized and its stability was assessed by applying voltages in a range from −200 to 200 mV with a 50 mV step for 5–10 min, stock solutions of nonactin A (7 μg/mL in ethanol) were added to the bathing solution (0.1 M KCl, 5 mM HEPES, pH 7.4) in both chamber compartments to obtain a final concentration ranging from 0.1 to 1 μM.
Test derivatives (4, 20, 22) as 10 mg/mL solutions in ethanol were added to both compartments in a concentration range from 5 µg/mL to Cbr in increments of 25 µg/mL.
The conductance of the bilayers was determined by measuring the membrane conductance (G) at a constant transmembrane voltage of 50 mV. In the subsequent calculations, the membrane conductance was assumed to be related to the membrane boundary potential (φb), the potential drop between the aqueous solution and the membrane hydrophobic core, by the Boltzmann distribution (1) Gm/Gm0=exp(eΔφb/kT) where Gm and Gm^0 are the steady-state membrane conductances induced by K^+-nonactin in the presence and absence of test compounds, respectively; e, k, and T have their usual meanings.
The changes in the membrane boundary potential for the defined experimental conditions were averaged from 4 bilayers and presented as mean ± standard deviation (p ≤ 0.05).

≈ marks a conversion by molar mass, not a printed value. Where two headings read alike, the source gives them in different places. A value given as a limit tells only on which side of the number the result lay.

As usually defined, the MIC is the lowest concentration found to suppress growth. One may read the CC50 as the concentration giving 50% cytotoxicity. The term melting point denotes the temperature, or range, at which the solid turns liquid. Molecule `COC(=O)/C(CCC=C(C)C)=C1\[C@@H](OC(C)=O)C[C@@]2(C)[C@@H]1C[C@@H](O)[C@@H]1[C@@]3(C)CC[C@H](NC(=O)c4cnccn4)[C@@H](C)C3CC[C@@]12C` (stereo partly drawn) [Compound 4, Methyl (2Z)-2-{(3β,4α,8α,11α,14β,16β)-16-(acetyloxy)-11-hydroxy-4,8,10,14-tetramethyl-3-[(pyrazin-2-ylcarbonyl)amino]gonan-17-ylidene}-6-methylhept-5-enoate] registered a melting point of 151 to 153 °C. Moreover, in [1], the minimal inhibitory concentration (MIC) is ≤0.25 ≤0.25 µg/mL. In addition, the “primary screening: antimicrobial activity” value in series [1] (S. aureus (MRSA), primary screen at 32 μg/mL) is “showed antimicrobial activity”. Moreover, the MIC in series [1] (Staphylococcus aureus, read-out: MIC) turned out to be 0.25 µg/mL (≈ 0.393 µM). The same molecule registered a CC50 at 20 h in “in vitro” of 24 µg/mL (≈ 37.7 µM). In series [2], this molecule gave a CC50 above 32 µg/mL. In “Hemolysis assay”, the hemolysis at 1 h stood at 3.9%. Further, the HC50 in the series with human red blood cells is on record as >32 >32 µg/mL. The “concentration up to which addition did not increase the ion permeability of the lipid bilayers” value in [3] (DPhPC uncharged membranes) is at most 225 µg/mL. Moreover, the “Cbr (threshold concentration required to rupture the bilayer)” value in series [3] (DPhPC, 0.1 M KCl, pH 7.4, 100 mV) turned out to be 225 ± 15 µg/mL. In addition, the “concentration up to which ionic permeability of lipid bilayers is not affected” value in series [4] (DPhPG) was “up to 170 μg/mL”. The “formation of ion-permeable pores” value in series [4] (DPhPG bilayers) was “not able to form transient ion-permeable pores”. The “Cbr (threshold concentration required to rupture the bilayer)” value in series [4] (DPhPG, 0.1 M KCl, pH 7.4, 100 mV) was found to be 163 ± 11 µg/mL. Besides, in series [5], the “−Δφb(max) (maximum decrease in the membrane boundary potential)” value is given as 21 ± 5 mV.
